Data as given in patent publication US20060122106A1, “Prevention and/or treatment of inflammatory bowel disease using pyy or agonists thereof” (Amylin Pharmaceuticals, Inc, priority 2002, published 2006).

Test system: rat model of chronic colonic inflammation (colitis induced by TNBS)
Experiment: TNBS hapten-induced colitis model of inflammatory bowel disease (Example 1)
Type: in vivo
Conditions: for gross morphologic damage score index: male HSD rats, colitis by 30 mg/kg TNBS intracolonic, colon scored (0-5, Table 1) four days after induction, saline control 3.24±0.66, PYY[3-36] 900 μg/kg s.c. twice daily, Depo-Medrol 600 μg/kg i.m., 5-ASA 200 mg/kg intracolonic; for spleen weight (systemic immune suppression): rat, in vivo
Method: Animal preparation: 10-11 weeks old male HSD rats, ranging 250-300 grams, were housed in a 12:12 light:dark cycle, and allowed ad libitum access to a standard rodent diet (Teklad L M 485, Madison, Wis.) and water. The animals were fasted for 24 hours before the experiment. Procedure: A simple and reproducible rat model of chronic colonic inflammation has been previously described by Morris G P, et al., “Hapten-induced model of chronic inflammation and ulceration in the rat colon.” Gastroenterology. 1989; 96:795-803. […] Rats were anesthetized with 3% isofluorane and placed on a regulated heating pad set at 37° C. A gavage needle was inserted rectally into the colon 7 cm. The hapten trinitrobenzenesulfonic acid (TNBS) dissolved in 50% ethanol (v/v) was delivered into the lumen of the colon through the gavage needle at a dose of 30 mg/kg, in a total volume of 0.4-0.6 mL, as described in Mazelin, supra. Control groups received saline solution (NaCl 0.9%) intracolonically. Four days after induction of colitis, the colon was resected from anesthetized rats, which were then euthanized by decapitation. Weights of excised colon and spleen were measured, and the colons photographed for scoring of gross morphologic damage according to Table 1 before division into 3 parts. The segment of colon 1 cm from the cecum was fixed in 10% formalin. Other segments were immediately frozen on dry ice. Inflammation was defined as regions of hyperemia and bowel wall thickening. […] [table] For this assay, 5 treatment groups were set up as follows: • Group A (n=3). intracolonic saline with subcutaneous treatment of saline; • Group B (n=8). subcutaneous treatment of saline prior to induction of colitis by 30 mg/kg TNBS; • Group C (n=10). […] Positive control—intramuscular injection of Depo-Medrol 600 μg/kg 60 min prior to induction of colitis by 30 mg/kg TNBS; • Group E (n=10). Positive control, 5-amino salicylic acid (Sigma) suspension at 200 mg/kg intracolonic administration in 0.5 mL saline, 60 min before induction of colitis and daily thereafter. Results

Q: `Nc1ccc(O)c(C(=O)O)c1` [5-ASA, 5-aminosalicylic acid] was tested. Which “gross morphologic damage score index” value did it give?
A: 1.62±0.62

Q: What about the “spleen weight (systemic immune suppression)” value of the same compound?
A: not decreased

Q: With `CC(=O)OCC(=O)[C@@]1(O)CC[C@H]2[C@@H]3C[C@H](C)C4=CC(=O)C=C[C@]4(C)[C@H]3[C@@H](O)C[C@@]21C` [Depo-Medrol] as the compound, how does the “gross morphologic damage score index” value read?
A: 1.12±0.26

Q: And the “spleen weight (systemic immune suppression)” value?
A: decreased
